How the values were obtained:
LIM domain kinase 2 = LIM domain kinase 2 (Homo sapiens, UniProt P53671); test: LIMK2(LIM2LGV1) Takeda global kinase panel
[1] = target: Phosphatidylinositol 4,5-bisphosphate 3-kinase catalytic subunit alpha isoform (Homo sapiens, UniProt P42336); test: PI3KCA(PI3ACGR1) Takeda global kinase panel
[2] = target: Casein kinase I isoform alpha-like (Homo sapiens, UniProt Q8N752); test: CK1alpha2(C1ALLGI5) Takeda global kinase panel
[3] = target: Proto-oncogene tyrosine-protein kinase ROS (Homo sapiens, UniProt P08922); test: Ros(ROS1PHY1) Takeda global kinase panel
[4] = target: Ribosomal protein S6 kinase beta-1 (Homo sapiens, UniProt P23443); test: p70S6K(R6B1CGF1) Takeda global kinase panel
[5] = target: Serine/threonine-protein kinase TNNI3K (Homo sapiens, UniProt Q59H18); test: HH498(TNNILGY1) Takeda global kinase panel
[6] = target: Mitogen-activated protein kinase 1 (Homo sapiens, UniProt P28482); test: ERK2(MAP1LGY1) Takeda global kinase panel
[7] = target: NUAK family SNF1-like kinase 2 (Homo sapiens, UniProt Q9H093); test: NuaK2(NUA2LHY1) Takeda global kinase panel
[8] = target: Mitogen-activated protein kinase 8 (Homo sapiens, UniProt P45983); test: JNK1(MAP8LGF1) Takeda global kinase panel
Sequence of Mitogen-activated protein kinase 8 (P45983 whole entry): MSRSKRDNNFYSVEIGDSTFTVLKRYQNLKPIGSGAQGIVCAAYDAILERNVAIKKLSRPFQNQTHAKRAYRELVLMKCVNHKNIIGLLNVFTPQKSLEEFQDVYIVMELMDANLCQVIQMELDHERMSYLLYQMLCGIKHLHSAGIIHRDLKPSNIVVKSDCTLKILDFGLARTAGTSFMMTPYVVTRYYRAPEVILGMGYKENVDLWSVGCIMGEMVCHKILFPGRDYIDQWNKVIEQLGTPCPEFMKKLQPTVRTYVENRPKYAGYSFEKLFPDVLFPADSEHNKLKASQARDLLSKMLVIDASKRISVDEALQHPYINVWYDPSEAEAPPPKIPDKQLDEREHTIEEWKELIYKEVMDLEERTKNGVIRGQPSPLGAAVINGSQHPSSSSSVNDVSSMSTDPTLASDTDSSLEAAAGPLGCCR

Ephrin type-A receptor 5 = Ephrin type-A receptor 5 (Homo sapiens, UniProt P54756); test: EphA5(EPA5MGF1) Takeda global kinase panel
[9] = target: Serine/threonine-protein kinase MARK1 (Homo sapiens, UniProt Q9P0L2); test: MARK1(MAR1PHY1) Takeda global kinase panel
Sequence of Serine/threonine-protein kinase MARK1 (Q9P0L2 whole entry): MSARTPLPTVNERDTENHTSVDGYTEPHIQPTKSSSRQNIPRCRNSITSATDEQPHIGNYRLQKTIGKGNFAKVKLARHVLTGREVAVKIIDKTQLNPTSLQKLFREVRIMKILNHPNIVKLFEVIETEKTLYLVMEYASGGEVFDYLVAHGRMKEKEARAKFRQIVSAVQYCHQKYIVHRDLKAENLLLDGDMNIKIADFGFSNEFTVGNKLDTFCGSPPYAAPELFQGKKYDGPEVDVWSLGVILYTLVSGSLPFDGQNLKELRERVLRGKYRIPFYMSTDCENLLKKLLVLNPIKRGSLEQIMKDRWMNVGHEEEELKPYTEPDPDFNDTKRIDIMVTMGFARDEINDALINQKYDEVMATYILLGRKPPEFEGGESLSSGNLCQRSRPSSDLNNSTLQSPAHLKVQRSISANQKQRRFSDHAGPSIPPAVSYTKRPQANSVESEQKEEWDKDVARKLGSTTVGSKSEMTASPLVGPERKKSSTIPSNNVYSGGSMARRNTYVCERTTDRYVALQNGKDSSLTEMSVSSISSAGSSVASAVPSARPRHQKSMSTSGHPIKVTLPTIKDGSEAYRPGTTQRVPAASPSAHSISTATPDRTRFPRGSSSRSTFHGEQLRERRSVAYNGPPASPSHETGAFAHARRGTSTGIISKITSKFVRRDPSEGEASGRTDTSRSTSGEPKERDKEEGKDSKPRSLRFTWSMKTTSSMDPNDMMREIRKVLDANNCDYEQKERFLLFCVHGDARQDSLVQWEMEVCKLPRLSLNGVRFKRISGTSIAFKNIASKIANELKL

[10] = target: Adenosine receptor A1 (Homo sapiens) (UniProt P30542); conditions: Compound concentration 10.0 uM
Sequence of Adenosine receptor A1 (Homo sapiens) (P30542 whole entry): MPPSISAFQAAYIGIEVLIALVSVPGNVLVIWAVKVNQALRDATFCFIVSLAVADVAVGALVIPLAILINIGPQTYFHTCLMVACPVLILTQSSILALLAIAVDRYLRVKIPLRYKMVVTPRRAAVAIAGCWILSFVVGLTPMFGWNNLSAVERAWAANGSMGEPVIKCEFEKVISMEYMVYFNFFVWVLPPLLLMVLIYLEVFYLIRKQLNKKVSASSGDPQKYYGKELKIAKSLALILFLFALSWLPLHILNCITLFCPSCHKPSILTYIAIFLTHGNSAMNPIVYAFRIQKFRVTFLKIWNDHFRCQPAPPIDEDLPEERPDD

[11] = target: Mitotic checkpoint serine/threonine-protein kinase BUB1 (Homo sapiens, UniProt O43683); test: Bub1(BUB1LGRL) Takeda global kinase panel
[12] = target: Muscarinic acetylcholine receptor M3 (Homo sapiens) (UniProt P20309); conditions: Compound concentration 10.0 uM
Sequence of Muscarinic acetylcholine receptor M3 (Homo sapiens) (P20309 whole entry, looked up): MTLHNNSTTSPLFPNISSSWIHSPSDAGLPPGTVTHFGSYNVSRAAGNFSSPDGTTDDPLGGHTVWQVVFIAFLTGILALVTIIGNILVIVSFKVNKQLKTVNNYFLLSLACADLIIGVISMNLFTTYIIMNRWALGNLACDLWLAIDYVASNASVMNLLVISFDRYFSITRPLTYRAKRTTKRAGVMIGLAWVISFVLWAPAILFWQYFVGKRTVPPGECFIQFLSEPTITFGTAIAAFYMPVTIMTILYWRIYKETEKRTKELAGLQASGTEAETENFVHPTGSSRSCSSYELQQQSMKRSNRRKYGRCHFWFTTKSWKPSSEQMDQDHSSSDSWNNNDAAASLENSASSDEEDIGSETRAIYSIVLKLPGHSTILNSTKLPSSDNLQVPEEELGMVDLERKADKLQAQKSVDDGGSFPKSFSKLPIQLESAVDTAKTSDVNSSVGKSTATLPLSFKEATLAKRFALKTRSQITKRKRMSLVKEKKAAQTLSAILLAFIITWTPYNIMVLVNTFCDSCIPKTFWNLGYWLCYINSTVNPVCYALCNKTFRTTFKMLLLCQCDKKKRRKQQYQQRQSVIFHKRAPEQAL

[13] = target: Cyclin-dependent kinase 13 (Homo sapiens, UniProt Q14004); test: CHED(CD13PHS1) Takeda global kinase panel
[14] = target: Tyrosine-protein kinase Tec (Homo sapiens, UniProt P42680); test: TEC(TEC1CGD1) Takeda global kinase panel
Sequence of Tyrosine-protein kinase Tec (P42680 whole entry): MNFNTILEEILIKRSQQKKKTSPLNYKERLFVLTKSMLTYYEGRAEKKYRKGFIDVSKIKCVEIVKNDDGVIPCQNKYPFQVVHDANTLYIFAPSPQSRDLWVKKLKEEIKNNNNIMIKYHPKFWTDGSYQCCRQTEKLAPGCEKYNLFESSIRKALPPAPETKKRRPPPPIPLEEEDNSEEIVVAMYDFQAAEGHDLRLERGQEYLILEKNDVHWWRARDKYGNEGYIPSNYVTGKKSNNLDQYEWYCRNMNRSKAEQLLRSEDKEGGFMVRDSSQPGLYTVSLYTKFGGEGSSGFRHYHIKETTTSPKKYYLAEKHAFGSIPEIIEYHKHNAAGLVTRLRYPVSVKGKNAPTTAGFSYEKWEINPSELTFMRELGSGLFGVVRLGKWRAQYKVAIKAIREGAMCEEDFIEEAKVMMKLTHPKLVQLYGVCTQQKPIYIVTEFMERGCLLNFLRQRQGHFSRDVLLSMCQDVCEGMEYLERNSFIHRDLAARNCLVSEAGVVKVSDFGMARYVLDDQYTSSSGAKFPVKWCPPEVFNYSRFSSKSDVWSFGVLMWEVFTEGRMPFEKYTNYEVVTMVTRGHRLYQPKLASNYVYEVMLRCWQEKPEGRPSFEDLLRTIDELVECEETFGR

[15] = target: Serine/threonine-protein kinase ULK1 (Homo sapiens, UniProt O75385); test: ULK1(ULK1LGF1) Takeda global kinase panel
[16] = target: Glycogen synthase kinase-3 beta (Homo sapiens, UniProt P49841); test: GSK3beta(GS3BLGM1) Takeda global kinase panel
[17] = target: Sigma non-opioid intracellular receptor 1 (Homo sapiens) (UniProt Q99720); test: Sigma 1 Eurofins-Panlabs radioligand binding assay; design: ligand concentration 15 nM; conditions: Compound concentration 10.0 uM
Sequence of Sigma non-opioid intracellular receptor 1 (Homo sapiens) (Q99720 whole entry): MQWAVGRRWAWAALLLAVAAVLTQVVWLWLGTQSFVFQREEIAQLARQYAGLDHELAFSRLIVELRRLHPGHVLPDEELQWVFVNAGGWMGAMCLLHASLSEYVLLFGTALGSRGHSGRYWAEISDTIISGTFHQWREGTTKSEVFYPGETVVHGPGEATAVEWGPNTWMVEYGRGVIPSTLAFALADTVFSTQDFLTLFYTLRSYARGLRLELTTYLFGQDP

[18] = target: Myosin light chain kinase, smooth muscle (Homo sapiens, UniProt Q15746); test: smMLCK(MYL1LGF1) Takeda global kinase panel
[19] = target: Protein kinase C delta type (Homo sapiens, UniProt Q05655); test: PKCdelta(PRKDPFP1) Takeda global kinase panel
[20] = target: Glucocorticoid receptor (Homo sapiens) (UniProt P04150); conditions: Compound concentration 10.0 uM
Sequence of Glucocorticoid receptor (Homo sapiens) (P04150 whole entry): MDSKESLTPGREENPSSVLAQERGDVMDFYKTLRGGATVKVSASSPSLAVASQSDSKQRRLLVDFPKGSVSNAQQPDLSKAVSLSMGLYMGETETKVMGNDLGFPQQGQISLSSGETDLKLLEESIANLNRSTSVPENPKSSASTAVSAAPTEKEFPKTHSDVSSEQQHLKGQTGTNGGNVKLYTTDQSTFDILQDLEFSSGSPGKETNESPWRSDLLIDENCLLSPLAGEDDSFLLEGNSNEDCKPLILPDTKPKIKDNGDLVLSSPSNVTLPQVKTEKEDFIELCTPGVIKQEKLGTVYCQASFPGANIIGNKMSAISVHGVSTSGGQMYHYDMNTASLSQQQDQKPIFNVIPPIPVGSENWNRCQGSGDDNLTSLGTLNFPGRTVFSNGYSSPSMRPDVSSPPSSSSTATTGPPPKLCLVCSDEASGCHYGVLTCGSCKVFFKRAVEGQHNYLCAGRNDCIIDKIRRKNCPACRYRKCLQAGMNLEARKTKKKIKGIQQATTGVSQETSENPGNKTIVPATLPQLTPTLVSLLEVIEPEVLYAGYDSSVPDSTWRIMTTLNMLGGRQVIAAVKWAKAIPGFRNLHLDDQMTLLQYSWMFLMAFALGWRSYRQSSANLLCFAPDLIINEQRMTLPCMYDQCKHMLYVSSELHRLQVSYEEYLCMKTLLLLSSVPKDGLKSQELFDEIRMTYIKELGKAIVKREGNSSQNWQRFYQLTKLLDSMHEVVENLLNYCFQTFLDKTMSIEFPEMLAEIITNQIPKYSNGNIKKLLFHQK

[21] = target: Maternal embryonic leucine zipper kinase (Homo sapiens, UniProt Q14680); test: MELK(MELKLGF1) Takeda global kinase panel
[22] = target: Bromodomain testis-specific protein (Homo sapiens, UniProt Q58F21); test: BRDT(BRDTLGRC) Takeda global kinase panel
[23] = target: Tyrosine-protein kinase ITK/TSK (Homo sapiens, UniProt Q08881); test: ITK(ITK1CGF1) Takeda global kinase panel
[24] = target: cGMP-dependent protein kinase 2 (Homo sapiens, UniProt Q13237); test: PKG2(PRG2LHY1) Takeda global kinase panel
[25] = target: Serine/threonine-protein kinase ULK3 (Homo sapiens, UniProt Q6PHR2); test: ULK3(ULK3LGF1) Takeda global kinase panel
[26] = target: Serine/threonine-protein kinase D3 (Homo sapiens, UniProt O94806); test: PKD3(PRD3LGG5) Takeda global kinase panel
[27] = target: Cyclin-dependent kinase 4 (Homo sapiens, UniProt P11802); test: CDK4(CDK4CGS1) Takeda global kinase panel
[28] = target: Tyrosine-protein kinase ABL1 (Homo sapiens, UniProt P00519); test: Abl(ABL1IHY1) Takeda global kinase panel
[29] = target: Cyclin-dependent kinase 5 (Homo sapiens, UniProt Q00535); test: CDK5(CDK5CGS1) Takeda global kinase panel
[30] = target: G protein-coupled receptor kinase 3 (Homo sapiens, UniProt P35626); test: BARK2 [GRK3(ADR2LGG5)] Takeda global kinase panel
[31] = target: Serine/threonine-protein kinase greatwall (Homo sapiens, UniProt Q96GX5); test: MASTL(MASLLGE1) Takeda global kinase panel
Sequence of Serine/threonine-protein kinase greatwall (Q96GX5 whole entry): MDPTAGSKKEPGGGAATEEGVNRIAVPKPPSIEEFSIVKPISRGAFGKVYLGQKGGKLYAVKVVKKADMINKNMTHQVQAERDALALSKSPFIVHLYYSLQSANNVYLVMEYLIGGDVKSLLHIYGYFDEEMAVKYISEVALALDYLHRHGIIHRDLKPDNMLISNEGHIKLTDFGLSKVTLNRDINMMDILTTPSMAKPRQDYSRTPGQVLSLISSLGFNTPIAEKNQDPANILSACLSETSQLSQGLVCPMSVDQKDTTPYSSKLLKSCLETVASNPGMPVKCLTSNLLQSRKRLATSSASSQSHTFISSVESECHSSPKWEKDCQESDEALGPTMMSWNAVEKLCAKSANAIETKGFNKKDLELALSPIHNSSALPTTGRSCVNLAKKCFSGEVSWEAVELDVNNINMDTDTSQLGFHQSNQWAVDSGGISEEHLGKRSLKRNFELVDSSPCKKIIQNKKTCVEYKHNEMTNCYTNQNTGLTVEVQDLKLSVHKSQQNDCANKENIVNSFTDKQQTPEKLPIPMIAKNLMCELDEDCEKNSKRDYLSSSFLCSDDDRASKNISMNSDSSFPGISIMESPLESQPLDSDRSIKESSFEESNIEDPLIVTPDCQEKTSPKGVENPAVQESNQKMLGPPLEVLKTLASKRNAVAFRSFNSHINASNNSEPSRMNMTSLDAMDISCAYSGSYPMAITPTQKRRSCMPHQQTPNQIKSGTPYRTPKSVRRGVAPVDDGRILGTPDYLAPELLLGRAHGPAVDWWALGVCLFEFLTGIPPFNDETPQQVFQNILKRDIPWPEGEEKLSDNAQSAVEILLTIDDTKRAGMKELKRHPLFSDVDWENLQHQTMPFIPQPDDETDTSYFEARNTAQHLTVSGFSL

[32] = target: Serine/threonine-protein kinase Chk2 (Homo sapiens, UniProt O96017); test: CHK2(CHE2LGY1) Takeda global kinase panel
[33] = target: Serine/threonine-protein kinase DCLK3 (Homo sapiens, UniProt Q9C098); test: DCAMKL3(DCL3LGP1) Takeda global kinase panel
[34] = target: Tyrosine-protein kinase Srms (Homo sapiens, UniProt Q9H3Y6); test: Srm(SRMSLGY1) Takeda global kinase panel
[35] = target: Mu-type opioid receptor (Homo sapiens) (UniProt P35372); conditions: Compound concentration 10.0 uM
Ephrin type-A receptor 3 = Ephrin type-A receptor 3 (Homo sapiens, UniProt P29320); test: EphA3(EPA3LGD5) Takeda global kinase panel
[36] = target: Casein kinase I isoform gamma-2 (Homo sapiens, UniProt P78368); test: CK1gamma2(C1G2LGI1) Takeda global kinase panel
[37] = target: Serine/threonine-protein kinase PAK 4 (Homo sapiens, UniProt O96013); test: PAK4(PAK4CGY1) Takeda global kinase panel
[38] = target: Sodium-dependent dopamine transporter (Homo sapiens) (UniProt Q01959); conditions: Compound concentration 10.0 uM
[39] = target: Endothelin receptor type B (Homo sapiens) (UniProt P24530); conditions: Compound concentration 10.0 uM
[40] = target: Microtubule-associated serine/threonine-protein kinase 3 (Homo sapiens, UniProt O60307); test: MAST3(MAS3LGE1) Takeda global kinase panel
Wee1-like protein kinase = Wee1-like protein kinase (Homo sapiens, UniProt P30291); test: Wee1(WEE1LGF1) Takeda global kinase panel
Ephrin type-A receptor 4 = Ephrin type-A receptor 4 (Homo sapiens, UniProt P54764); test: EphA4(EPA4LGF1) Takeda global kinase panel
[41] = target: Tyrosine-protein kinase TXK (Homo sapiens, UniProt P42681); test: TXK(TXK1CGD5) Takeda global kinase panel
[42] = target: MAP/microtubule affinity-regulating kinase 3 (Homo sapiens, UniProt P27448); test: MARK3(MAR3LGO5) Takeda global kinase panel

Sequence of Casein kinase I isoform alpha-like (Q8N752 whole entry, canonical isoform): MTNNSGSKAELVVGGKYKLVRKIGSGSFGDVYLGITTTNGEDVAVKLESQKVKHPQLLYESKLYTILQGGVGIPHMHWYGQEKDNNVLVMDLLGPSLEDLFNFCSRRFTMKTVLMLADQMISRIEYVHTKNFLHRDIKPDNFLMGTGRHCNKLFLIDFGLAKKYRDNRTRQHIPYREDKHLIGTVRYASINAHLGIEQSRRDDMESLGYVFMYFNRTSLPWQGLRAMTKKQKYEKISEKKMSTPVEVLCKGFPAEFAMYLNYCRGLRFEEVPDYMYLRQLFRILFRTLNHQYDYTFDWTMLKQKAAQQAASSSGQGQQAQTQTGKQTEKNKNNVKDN

## CN1C(=O)[C@@H](N2CCc3cn(Cc4ccccc4)nc3C2=O)COc2ccccc21 [TP-030-1]
LIM domain kinase 2
  IC50: 1000 nM
[1]
  IC50: 1000 nM
[2]
  IC50: 1000 nM
[3]
  IC50: 1000 nM
[4]
  IC50: 1000 nM
[5]
  IC50: 1000 nM
[6]
  IC50: 1000 nM
[7]
  IC50: 1000 nM
[8]
  IC50: 1000 nM
Ephrin type-A receptor 5
  IC50: 1000 nM
[9]
  IC50: 1000 nM
[10]
  inhibition: 7%
[11]
  IC50: 1000 nM
[12]
  inhibition: 1%
[13]
  IC50: 1000 nM
[14]
  IC50: 1000 nM
[15]
  IC50: 1000 nM
[16]
  IC50: 1000 nM
[17]
  inhibition: 27%
[18]
  IC50: 1000 nM
[19]
  IC50: 1000 nM
[20]
  inhibition: 5%
[21]
  IC50: 1000 nM
[22]
  IC50: 1000 nM
[23]
  IC50: 1000 nM
[24]
  IC50: 1000 nM
[25]
  IC50: 1000 nM
[26]
  IC50: 1000 nM
[27]
  IC50: 1000 nM
[28]
  IC50: 1000 nM
[29]
  IC50: 1000 nM
[30]
  IC50: 1000 nM
[31]
  IC50: 1000 nM
[32]
  IC50: 1000 nM
[33]
  IC50: 1000 nM
[34]
  IC50: 1000 nM
[35]
  inhibition: 19%
Ephrin type-A receptor 3
  IC50: 1000 nM
[36]
  IC50: 1000 nM
[37]
  IC50: 1000 nM
[38]
  inhibition: 29%
[39]
  inhibition: 0%
[40]
  IC50: 1000 nM
Wee1-like protein kinase
  IC50: 1000 nM
Ephrin type-A receptor 4
  IC50: 1000 nM
[41]
  IC50: 1000 nM
[42]
  IC50: 1000 nM

## CN1C(=O)[C@@H](N2CCc3cn(CC4CCS(=O)(=O)CC4)nc3C2=O)COc2ccccc21 [TP-030n]
LIM domain kinase 2
  IC50: 1000 nM
[1]
  IC50: 1000 nM
[2]
  IC50: 1000 nM
[3]
  IC50: 1000 nM
[4]
  IC50: 1000 nM
[5]
  IC50: 1000 nM
[6]
  IC50: 1000 nM
[7]
  IC50: 1000 nM
[8]
  IC50: 1000 nM
Ephrin type-A receptor 5
  IC50: 1000 nM
[9]
  IC50: 1000 nM
[10]
  inhibition: -2%
[11]
  IC50: 1000 nM
[12]
  inhibition: -3%
[13]
  IC50: 1000 nM
[14]
  IC50: 1000 nM
[15]
  IC50: 1000 nM
[16]
  IC50: 1000 nM
[17]
  inhibition: 11%
[18]
  IC50: 1000 nM
[19]
  IC50: 1000 nM
[20]
  inhibition: 3%
[21]
  IC50: 1000 nM
[22]
  IC50: 1000 nM
[23]
  IC50: 1000 nM
[24]
  IC50: 1000 nM
[25]
  IC50: 1000 nM
[26]
  IC50: 1000 nM
[27]
  IC50: 1000 nM
[28]
  IC50: 1000 nM
[29]
  IC50: 1000 nM
[30]
  IC50: 1000 nM
[31]
  IC50: 1000 nM
[32]
  IC50: 1000 nM
[33]
  IC50: 1000 nM
[34]
  IC50: 1000 nM
[35]
  inhibition: 4%
Ephrin type-A receptor 3
  IC50: 1000 nM
[36]
  IC50: 1000 nM
[37]
  IC50: 1000 nM
[38]
  inhibition: 10%
[39]
  inhibition: -3%
[40]
  IC50: 1000 nM
Wee1-like protein kinase
  IC50: 1000 nM
Ephrin type-A receptor 4
  IC50: 1000 nM
[41]
  IC50: 1000 nM
[42]
  IC50: 1000 nM

Reference: ChEMBL document CHEMBL4507327 (2021)
